Data as given in patent publication US8969549B2, “Antioxidant small molecules aimed at targeting metal-based oxidative stress in neurogenerative disorders” (Texas Christian University, priority 2013, dated 2015).

Columns and labels:
MTT cytotoxicity assay = assay type: cell-based; conditions: mouse, HT-22 hippocampal neuronal cells, HT-22 cells
Protocol: As these compounds show potential for future in vivo studies, the 3-(4,5-dimethythiazol-2-yl)-2,5-diphenyl tetrazolium bromide (MTT) assay was performed in order to test compounds 2, 3 of Chart 4 for cytotoxicity with HT-22 cells, which is a hippocampal neuronal cell line extracted from mice. This is a colorimetric assay that measures the mitochondrial activity of living cells in which MTT crosses into the mitochondria where it is reduced to media insoluble formazan (dark purple), which is later solubilized in DMSO and measured spectroscopically (λmax=540 nm). Since the reduction of MTT can only occur in living cells with undamaged mitochondria, this is a good assay to measure cell proliferation and cytotoxicity.
For the biological assays mouse hippocampal HT-22 cell line was used, incubated them at 37° C. in a humidified atmosphere 5% CO2, with Dulbecco's Modified Eagle Medium (500 ml) containing penicillin/streptomycin 100× (5 ml), Glutamine (100 mM, 5 ml), charcoal strip fetal bovine serum. […]
(3-(4,5-dimethylthiazol-2-yl)-2,5-diphenyltetrazolium bromide) cells were seeded in a 96 well plate with a density of 5000 cells per well (in 100 μL per well). […] Media is discarded again and 100 μL of DMSO are added to each well, rocked for 5 minutes and the absorbance (A510) was measured using a Molecular Devices Kinetic Microplate Reader.

[1] = DPPH radical quenching assay; assay type: biochemical
Description: Compound 2 (Chart 2) exists largely as the pyridol tautomer as confirmed by NMR. The reactivity of pyridol/pyridone based compounds such as chelidamic acid have shown reactivity with OH radicals in solution to form bis-pyridones and is a different mechanism than pyridine based compounds such as 1 (Chart 2). This reactivity is attributed to the enhanced antioxidant capacity observed. Chelidamic acid is the pyridone congener to the starting material used to produce 1. Therefore similar methodologies to produce 2 in gram scale quantities were employed.
As radicals are one product of miscompartmentalized metal ions, radical scavenging capability of compounds 1-3 (Chart 4) was tested using the DPPH assay. DPPH (2,2-diphenyl-1-picrylhydrazyl), is a dark purple (λmax=540 nm), stable free radical in solution that can be reduced to DPPHH in the presence of molecules with radical scavenging activity. This process results in a color change from dark purple to light yellow and can be followed spectroscopically by the decrease of the band at 540 nm. Applicants have, therefore, utilized this method to measure radical scavenging capability of their own organic molecules. BHT (butylhydroxytoluene) was used as a positive control due to its known antioxidant properties.
DPPH stock solution was prepared by dissolving 25 mg in 100 mL of absolute EtOH. The working radical solution was prepared by dilution with absolute EtOH to an absorbance of 1.3 at 512 nm. Stock solutions of the compounds tested were dissolved in DI H2O and EtOH 95% respectively and serial dilutions were made to get different concentrations. For the analysis 2 mL of the solutions were incubated with 2 mL of DPPH working solutions in the dark for 24 h. as well as 2 mL of DPPH working solution with 2 mL of H2O or EtOH to serve as blank. Analysis of the solutions was performed as follows: 1 mL of the sample solution was diluted with 1 mL of H2O shaken and the absorbance was measured at 515 nm.

[2] = log K constants with Cu^II; assay type: binding
Description: (§1) The ligand is the backbone to PCTA, a potential MRI contrast agent explored in recent years and has been repurposed for Applicant's work.

[3] = log K constants with Zn^II; assay type: binding
Description: as §1

[4] = ABTS radical assay standardized against Trolox; assay type: biochemical; conditions: ligand concentration 100 μM
FRDA cells [5] = experiment: Calcein AM viability assay with BSO; assay type: cell-based, human; conditions: Homo sapiens, 48 hour BSO 1 mM; for viability at 0.001 µM: compound 1 nM final, read-out: cell viability compared to untreated control cells
Protocol: (§2) FIG. 5 is a graph showing a Calcien AM viability assay of FRDA cells after 48 hour exposure to BSO [1 mM] with 1-4 [1 nM final].
(§3) FIG. 10 is a graph showing Calcein AM viability assay of FRDA cells after 48 hour exposure to BSO [1 mM] followed by addition of 2 [various concentrations].
(§4) FRDA cells have higher levels of ROS due to mitochondrial misfunction associated with frataxin expression and therefore serve as a good model for ROS protection. […] Calcein AM, a non-fluorescent, hydrophobic compound that easily permeates intact, live cells, was used as an indicator for cell viability.
(§5) This dose response is visualized in the fluorescent cell images shown in FIG. 11 with increased cell survival corresponding to increasing 2 in the nM range.

[6] = Calcein AM viability assay with BSO; assay type: cell-based, human; conditions: human, FRDA cells (fibroblasts from a Friedreich's Ataxia patient), BSO 1 mM alone, read-out: cell viability compared to control cells, BSO-alone
Protocol: as §2, §3, §4, §5

FRDA cells [7] = experiment: DCFH-DA ROS assay with BSO; assay type: cell-based, human
Protocol: FIG. 6 is a graph showing DCFH-DA fluorescent response in FRDA cells after 12 hours exposure to BSO [1 mM] with 1-4 [4 nM].
FIG. 7 is a graph of DCFH-DA fluorescent response in FRDA cells after 12 hours exposure to BSO [1 mM] showing dose dependence with 1.
FIG. 9 is a graph of DCFH-DA fluorescent response in FRDA cells after 12 hours exposure to BSO [1 mM] showing dose dependence with 1 and 2.
The antioxidant activity of compound 1 compared to compounds 2-3 (Chart 1) was then studied using the cell-permeable fluorophore 2,7′-Dichlorodihydrofluorescin diacetate (DCFH-DA) as an indicator for ROS. DCFH-DA diffuses into cells and is deacetylated by cellular esterases to non-fluorescent 2′,7′-Dichlorodihydrofluorescin (DCFH). This species is subsequently oxidized to the highly fluorescent 2′,7′-Dichlorodihydrofluorescein (DCF) species in the presence of ROS. The fluorescent intensity is directly proportional to the amount of ROS present in cell cytosol. BSO (2-amino-4-(butylsulfonimidoyl)butanoic acid) was used to inhibit the first step of de novo glutathione synthesis, allowing us to observe the elevated intra-cellular [ROS] are thereby observed.
Cellular studies were carried out to evaluate the intra-cellular antioxidant efficacy and toxicity of compound 2 (Chart 2) compared to 1 using the cell-permeable fluorophore 2,7′-dichlorodihydrofluorescin diacetate (DCFH-DA) as an indicator for ROS. DCFH-DA diffuses into cells and is deacetylated by cellular esterases to non-fluorescent 2′,7′-dichlorodihydrofluorescin (DCFH) which is subsequently oxidized to the highly fluorescent 2′,7′-dichlorodihydrofluorescein (DCF) species in the presence of ROS. The fluorescence intensity is directly proportional to the amount of ROS present in cell cytosol.^11 BSO (2-amino-4-(butylsulfonimidoyl)butanoic acid) is a commonly used model for oxidative stress via inhibition of cytosolic glutathione synthesis resulting in elevated intra-cellular [ROS] and an increased fluorescent signal in the presence of DCFH (FIG. 9).

Aβ1-40 [8] = experiment: Turbidity assay of metal-induced amyloid aggregation; assay type: biochemical; conditions: for disaggregation of pre-formed metal-induced Aβ1-40 aggregates (turbidity): copper(II) or zinc(II) aggregates, ligand added afterwards
Description: Metal ions (copper and zinc) bind to a histidine rich domain in amyloid producing Aβ in the form of insoluble plaques. This process has been comprehensively studied and described in a number of recent reviews. The aggregation of amyloid can be followed by simple spectroscopic techniques such as turbidity and tyrosine fluorescence studies. These methods were used to investigate the ability of 1 to dissociate pre-formed amyloid aggregates upon addition of metal ions, as well as prevent amyloid aggregation.
Metal ions bind to a histidine rich domain in amyloid producing Aβ in the form of insoluble plaques. This process has been extensively studied and described in a number of recent reviews.

Aβ1-40 [9] = experiment: Tyr^10 fluorescence of Aβ1-40; assay type: biochemical
Description: FIG. 2 is a graph showing the addition of ligands 1-4 to aggregated Aβ results in reconstitution of Tyr^10 fluorescence which was decreased due to aggregate formation.
To further determine the capability of 1 to prevent or disrupt metal-ion induced amyloid aggregation, Applicant's studied Tyr fluorescence intensity. Recent reports have also utilized the natural fluorescence of the native Tyr^10 in the Aβ1-40 sequence to study the conformational dynamics of amyloid folding as it relates to AD and/or production of H2O2. As Tyr^10 is located within proximity to the metal binding pocket in Aβ1-40 the fluorescence intensity of the phenolic side chain decreases during the folding process due to environmental changes that occur locally. This work was supported by circular dichroism spectra, which verified that fluorescence intensity decreased as the conformation of amyloid changed to beta-sheets. […] Applicant's hypothesis was that Tyr fluorescence intensity should be restored to control levels upon addition of compounds 1-4 (Chart 1) to a solution of pre-formed metal aggregates, as shown below in FIG. 2. […] Similar results were also obtained for amyloid samples co-incubated with 1-4 prior to metal ion addition.
The macrocyclic compound 2 (Chart 2) is also a chelator capable of preventing metal-induced amyloid formation as well as disaggregation. Metal ions bind to a histidine rich domain in amyloid producing Aβ in the form of insoluble plaques. This process has been extensively studied and described in a number of recent reviews. […] Moreover, amyloid aggregates formed by metal ion co-incubation can be disaggregated by the addition of compounds 1 or 2 (FIG. 12b).

[10] = LA/DHLA; cited from earlier work
[11] = Cu-ascorbate redox system with coumarin-3-carboxylic acid (CCA); assay type: biochemical; conditions: added after two minutes co-incubation with CCA
Description: As increased levels of ROS are associated with AD, Applicant's set out to investigate the antioxidant character of 1 compared to the heterocycles 2 and/or 3. […] Moreover, many of the pathways proposed to produce ROS leading to AD pathology involve metal ions. Applicant's therefore utilized the Cu-ascorbate redox system, Scheme 1, as a model to determine if the ligands could halt copper based redox activity under aerobic conditions:
Faller and co-workers employed this system to investigate the redox chemistry of amyloid systems with Cu. Coumarin-3-carboxylic acid (CCA), which generates fluorescent 7-hydroxy-CCA in the presence of hydroxyl radicals, was used to quantify the reduction of oxygen by copper redox-cycling in the presence of ascorbate.

O=C(NCCNc1nc(N2CCNCCNCCNCC2)nc(N2CCNCCNCCNCC2)n1)c1cc2ccccc2oc1=O [3 (Chart 4), N-(2-((4,6-di(1,4,7,10-tetraazacyclododecan-1-yl)-1,3,5-triazin-2-yl)amino)ethyl)-2-oxo-2H-chromene-3-carboxamide]
EC50 at 48 h (MTT cytotoxicity assay): 125 µM
quenching of the DPPH radical ([1]; concentration dependent, concentrations not given): 52-64%

O=C(O)CN(CCN(CC(=O)O)CC(=O)O)CC(=O)O [4 (Chart 1)]
log K constants Cu^II [2]: 9.18
log K constants Zn^II [3]: 8.41
Trolox equivalents (ABTS radical) [4]: 0.15 Trolox equivalents
viability at 0.001 µM (FRDA cells [5]): > 60%

CCCCS(=N)(=O)CCC(N)C(=O)O (centres unmarked) [BSO, 2-amino-4-(butylsulfonimidoyl)butanoic acid, reference compound]
viability at 48 h, 1 mM [6]: ~45%
increase in ROS, BSO-treated cells (positive control) (FRDA cells [7]; BSO 1 mM alone): ~1.8 fold

C1CNCCNCCNCCN1 [Compound 2 (Chart 1)]
log K constants Cu^II [2]: 23
log K constants Zn^II [3]: 16
Trolox equivalents (ABTS radical) [4]: 0.23 Trolox equivalents
viability at 0.001 µM (FRDA cells [5]): > 60%
disaggregation of pre-formed metal-induced Aβ1-40 aggregates (turbidity) (Aβ1-40 [8]): Aβ dis-aggregating agents, which Applicant's studies corroborate

Oc1cc2nc(c1)CNCCNCCNC2 [Compound 2 (Chart 2)]
reconstitution of Tyr^10 fluorescence of aggregated Aβ1-40 (Aβ1-40 [9]; ligand added to pre-formed metal aggregates): equally effective
prevention of loss of Tyr^10 fluorescence of Aβ1-40 (Aβ1-40 [9]; ligand co-incubated prior to metal ion addition, 24 hours): equally effective
EC50 (FRDA cells [5]; read-out: EC50 protection against BSO assault (Calcein AM)): 0.0315 ± 0.00496 µM
disaggregation of pre-formed metal-induced Aβ1-40 aggregates (turbidity) (Aβ1-40 [8]): disaggregated
prevention of metal-induced Aβ1-40 aggregation (turbidity) (Aβ1-40 [8]; ligand co-incubated with amyloid before copper(II) or zinc(II) addition): prevents formation of aggregations
decrease of [ROS] compared to the untreated cells (FRDA cells [7]; 1.25 nM): 33%
decrease of [ROS] compared to the untreated cells (FRDA cells [7]; 12.5 nM): 58%
decrease of [ROS] compared to the untreated cells (FRDA cells [7]; 125 nM): 75%
decrease of [ROS] compared to the untreated cells (FRDA cells [7]; 1.25 μM): 87%
ability to reduce free radicals in solution (DPPH) versus 1 [1]: enhanced ability to reduce free radicals in solution

O=C(O)CCCCC1CCSS1 (stereo not drawn) [LA, α-lipoic acid]
redox potential [10]: −320 mV

C1CNCCNCCNCCN1 [cyclen, 1,4,7,10-tetraazacyclododecane, reference compound]
quenching of the DPPH radical ([1]; 1250 μM): no activity

Aβ1-40: beta-amyloid peptide 1-40 with histidine rich metal binding site [reference compound]
7-hydroxy-CCA signal after addition to running Cu-ascorbate system [11]: leveling of the 7-hydroxy-CCA signal
